Measured values reported in patent US9822103B2, “Inhibitors of lysine methyl transferase” (priority 2013, dated 2017).

These compounds were tested against recombinant EZH2-641F complex (EZH2 Y641F/EED/SUZ12/RbAp48/AEBP2) (Homo sapiens (Human), UniProt Q15910, Y641F) (assay: EZH2 Histone Methyl Transferase Assay (scintillation proximity assay)). Details: 350 nM histone peptide substrate, 500 nM 3H-SAM, 3 hours room temperature.
Format: biochemical
Method: EZH2 Histone Methyl Transferase Assay
The effectiveness of compounds of the present invention as inhibitors of histone methyl transferases can be readily tested by assays known to those skilled in the art. For example, in vitro histone methyl transferase assays may be conducted with a relevant purified histone methyl transferase and an appropriate synthetic substrate to determine the inhibitory activity of the compounds. Assays for inhibition of EZH2 by the instant compounds were performed in 384-well plates with reaction mixtures containing 350 nM of histone peptide substrate (ATKAAR-K(Me2)-SAPATGGVKKPHRYRPG-GK(Biotin), 500 nM S-[methyl-^3H]adenosyl-L-methionine (55-85 Ci/mmol), 50 mM Tris-HCl (pH 9.0), 50 mM NaCl, 1 mM dithiothreitol, Tween-20 at 0.01% and fatty-acid free bovine serum albumin at 0.01%, and recombinant EZH2-641F complex (EZH2 Y641F/EED/SUZ12/RbAp48/AEBP2) at 5 nM (>98% purity, BPS Bioscience) or 15 nM (50% purity, in-house). Reaction mixtures were incubated at room temperature for 3 hours, and the reactions were terminated by 0.005% poly-L-lysine solution in 20 mM Tris-HCl (pH 7.5) and 150 mM NaCl. Reaction products were captured by binding to strepavidin-conjugated imaging beads. Incorporation of radioactive methyl group into the histone peptide substrate was determined in Leadseeker (GE Healthcare) by means of scintillation proximity assay. Dose response curves were generated to determine the concentration required to inhibit 50% of methyl transferase activity (EC50). Compounds were dissolved at 10 mM in dimethylsulfoxide (DMSO) and evaluated at eleven concentrations. EC50 values were derived by non-linear regression analysis.

Chain of recombinant EZH2-641F complex (EZH2 Y641F/EED/SUZ12/RbAp48/AEBP2) (Q15910 whole entry Y641F): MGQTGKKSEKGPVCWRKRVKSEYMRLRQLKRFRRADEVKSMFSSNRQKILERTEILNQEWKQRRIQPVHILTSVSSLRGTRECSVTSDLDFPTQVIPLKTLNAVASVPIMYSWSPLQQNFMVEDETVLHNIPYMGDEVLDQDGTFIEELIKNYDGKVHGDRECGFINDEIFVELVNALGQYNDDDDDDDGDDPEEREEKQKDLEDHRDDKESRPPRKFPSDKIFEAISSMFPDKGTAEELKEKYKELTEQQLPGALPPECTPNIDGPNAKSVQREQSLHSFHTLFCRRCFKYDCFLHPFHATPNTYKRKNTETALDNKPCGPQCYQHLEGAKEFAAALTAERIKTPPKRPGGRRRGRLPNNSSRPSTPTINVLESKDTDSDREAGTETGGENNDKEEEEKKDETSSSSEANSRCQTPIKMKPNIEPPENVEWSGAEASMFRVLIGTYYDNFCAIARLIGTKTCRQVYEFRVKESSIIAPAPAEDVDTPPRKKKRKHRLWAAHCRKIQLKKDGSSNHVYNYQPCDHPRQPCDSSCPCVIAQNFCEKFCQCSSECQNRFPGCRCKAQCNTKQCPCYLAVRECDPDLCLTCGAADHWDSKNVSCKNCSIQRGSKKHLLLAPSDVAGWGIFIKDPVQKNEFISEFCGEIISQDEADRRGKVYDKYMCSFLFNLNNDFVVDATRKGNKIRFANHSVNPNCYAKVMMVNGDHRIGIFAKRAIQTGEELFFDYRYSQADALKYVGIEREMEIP
Chain of recombinant EZH2-641F complex (EZH2 Y641F/EED/SUZ12/RbAp48/AEBP2) (O75530 whole entry partner): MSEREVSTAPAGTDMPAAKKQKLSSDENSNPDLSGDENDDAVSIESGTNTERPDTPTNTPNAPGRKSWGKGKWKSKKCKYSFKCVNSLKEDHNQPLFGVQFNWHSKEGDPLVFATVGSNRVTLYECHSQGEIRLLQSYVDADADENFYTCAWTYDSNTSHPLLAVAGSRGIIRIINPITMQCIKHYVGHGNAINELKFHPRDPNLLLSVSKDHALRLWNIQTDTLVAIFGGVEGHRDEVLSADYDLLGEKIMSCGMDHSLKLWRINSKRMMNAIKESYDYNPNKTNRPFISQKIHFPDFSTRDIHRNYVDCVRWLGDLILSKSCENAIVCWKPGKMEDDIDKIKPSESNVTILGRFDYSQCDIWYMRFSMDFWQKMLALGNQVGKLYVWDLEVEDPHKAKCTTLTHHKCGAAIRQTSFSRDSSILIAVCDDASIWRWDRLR
Chain of recombinant EZH2-641F complex (EZH2 Y641F/EED/SUZ12/RbAp48/AEBP2) (Q15022 whole entry partner): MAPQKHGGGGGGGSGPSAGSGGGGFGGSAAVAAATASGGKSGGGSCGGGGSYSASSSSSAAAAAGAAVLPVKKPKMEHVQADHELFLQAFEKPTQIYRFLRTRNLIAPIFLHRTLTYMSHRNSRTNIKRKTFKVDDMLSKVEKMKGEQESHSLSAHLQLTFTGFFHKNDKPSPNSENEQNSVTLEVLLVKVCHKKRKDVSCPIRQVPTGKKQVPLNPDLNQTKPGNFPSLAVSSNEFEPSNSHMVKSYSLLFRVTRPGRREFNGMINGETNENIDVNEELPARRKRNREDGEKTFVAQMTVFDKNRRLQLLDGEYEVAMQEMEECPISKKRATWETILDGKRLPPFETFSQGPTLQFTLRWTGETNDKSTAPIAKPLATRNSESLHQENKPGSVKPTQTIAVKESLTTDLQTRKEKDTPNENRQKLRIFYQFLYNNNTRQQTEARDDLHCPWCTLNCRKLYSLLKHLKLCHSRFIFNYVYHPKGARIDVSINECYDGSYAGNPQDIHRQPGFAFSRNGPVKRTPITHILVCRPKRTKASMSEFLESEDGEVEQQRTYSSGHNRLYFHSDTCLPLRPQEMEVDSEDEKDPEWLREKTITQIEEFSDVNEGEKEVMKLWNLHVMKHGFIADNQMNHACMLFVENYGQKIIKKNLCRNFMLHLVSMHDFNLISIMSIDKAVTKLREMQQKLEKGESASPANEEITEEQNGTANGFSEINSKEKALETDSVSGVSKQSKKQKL
Chain of recombinant EZH2-641F complex (EZH2 Y641F/EED/SUZ12/RbAp48/AEBP2) (Q09028 whole entry partner): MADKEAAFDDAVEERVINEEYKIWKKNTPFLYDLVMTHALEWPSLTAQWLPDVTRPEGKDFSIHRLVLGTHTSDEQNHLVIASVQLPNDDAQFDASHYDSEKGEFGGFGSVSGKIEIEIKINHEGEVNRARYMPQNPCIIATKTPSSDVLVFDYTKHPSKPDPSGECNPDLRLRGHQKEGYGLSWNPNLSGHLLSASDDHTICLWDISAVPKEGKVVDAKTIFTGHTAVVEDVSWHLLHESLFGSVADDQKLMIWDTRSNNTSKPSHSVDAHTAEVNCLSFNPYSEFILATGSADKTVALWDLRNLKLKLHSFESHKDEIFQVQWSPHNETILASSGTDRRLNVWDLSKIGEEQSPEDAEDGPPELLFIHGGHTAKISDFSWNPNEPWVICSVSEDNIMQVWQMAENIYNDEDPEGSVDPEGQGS
Chain of recombinant EZH2-641F complex (EZH2 Y641F/EED/SUZ12/RbAp48/AEBP2) (Q6ZN18 whole entry partner): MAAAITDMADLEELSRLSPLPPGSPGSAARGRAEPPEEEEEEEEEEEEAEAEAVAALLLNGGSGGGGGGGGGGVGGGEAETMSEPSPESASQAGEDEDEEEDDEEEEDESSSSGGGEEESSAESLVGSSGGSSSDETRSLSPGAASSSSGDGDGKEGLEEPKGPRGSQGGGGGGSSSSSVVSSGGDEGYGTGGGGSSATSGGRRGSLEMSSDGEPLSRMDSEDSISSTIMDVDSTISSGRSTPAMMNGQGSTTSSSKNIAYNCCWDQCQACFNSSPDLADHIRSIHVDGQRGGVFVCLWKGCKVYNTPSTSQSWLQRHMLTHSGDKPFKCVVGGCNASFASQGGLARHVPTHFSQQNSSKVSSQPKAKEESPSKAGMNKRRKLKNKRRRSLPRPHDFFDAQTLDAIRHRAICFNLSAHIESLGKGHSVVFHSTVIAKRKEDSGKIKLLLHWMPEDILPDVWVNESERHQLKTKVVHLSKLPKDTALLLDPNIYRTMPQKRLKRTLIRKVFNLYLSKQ

SMILES | IC50
COc1ccc(-c2cc(C(=O)NCc3c(C)cc(C)[nH]c3=O)c(C)c3c2OC(C)(C)C3)cn1 [Example 25, N-((4,6-Dimethyl-2-oxo-1,2-dihydropyridin-3-yl)methyl)-7-(6-methoxypyridin-3-yl)-2,2,4-trimethyl-2,3-dihydrobenzofuran-5-carboxamide] | 500 to 1000 nM
COc1ccc(-c2cc(C(=O)NCc3c(C)cc(C)[nH]c3=O)cc3c2OC(C)(C)CC3)cn1 [Example 43, N-((4,6-Dimethyl-2-oxo-1,2-dihydropyridin-3-yl)methyl)-8-(6-methoxypyridin-3-yl)-2,2-dimethylchroman-6-carboxamide] | > 1000 nM
Cc1cc(C)c(CNC(=O)c2cc3c(c(-c4ccc(N5CCNCC5)nc4)c2)OC(C)C3)c(=O)[nH]1 (stereo not drawn) [Example 34, N-((4,6-Dimethyl-2-oxo-1,2-dihydropyridin-3-yl)methyl)-2-methyl-7-(6-(piperazin-1-yl)pyridin-3-yl)-2,3-dihydrobenzofuran-5-carboxamide] | > 1000 nM
CCCc1cc(C)[nH]c(=O)c1CNC(=O)c1cc(Cl)c2c(c1)CC(C)(C)O2 [Example 23, 7-Chloro-2,2-dimethyl-N-((6-methyl-2-oxo-4-propyl-1,2-dihydropyridin-3-yl)methyl)-2,3-dihydrobenzofuran-5-carboxamide] | > 1000 nM
Cc1cc(C)c(CNC(=O)c2cc(C#N)c3c(c2)CC(C)(C)O3)c(=O)[nH]1 [Example 22, 7-Cyano-N-((4,6-dimethyl-2-oxo-1,2-dihydropyridin-3-yl)methyl)-2,2-dimethyl-2,3-dihydrobenzofuran-5-carboxamide] | > 1000 nM
Cc1cc(C)c(CNC(=O)c2cc3c(c(-c4ccc(N5CCNCC5)cc4)c2)OC(C)(C)C3)c(=O)[nH]1 [Example 18, N-((4,6-Dimethyl-2-oxo-1,2-dihydropyridin-3-yl)methyl)-2,2-dimethyl-7-(4-(piperazin-1-yl)phenyl)-2,3-dihydrobenzofuran-5-carboxamide] | < 500 nM

Continued, values first:

IC50 | SMILES
< 500 nM | CCCc1cc(C)[nH]c(=O)c1CNC(=O)c1cc2c(c(-c3ccc(N4CCN(C(C)C)CC4)nc3)c1)OC(C)(C(C)C)C2 (stereo not drawn) [Example 93, 2-Isopropyl-7-(6-(4-isopropylpiperazin-1-yl)pyridin-3-yl)-2-methyl-N-((6-methyl-2-oxo-4-propyl-1,2-dihydropyridin-3-yl)methyl)-2,3-dihydrobenzofuran-5-carboxamide]
> 1000 nM | Cc1cc(C)c(CNC(=O)c2cc(Br)c3c(c2)C2(CCCC2)CO3)c(=O)[nH]1 [Example 75, 7-Bromo-N-((4,6-dimethyl-2-oxo-1,2-dihydropyridin-3-yl)methyl)-2H-spiro[benzofuran-3,1′-cyclopentane]-5-carboxamide]
> 1000 nM | CC1=CCOc2c(Br)cc(C(=O)NCc3c(C)cc(C)[nH]c3=O)cc2C1 [Example 44, 9-Bromo-N-((4,6-dimethyl-2-oxo-1,2-dihydropyridin-3-yl)methyl)-4-methyl-2,5-dihydrobenzo[b]oxepine-7-carboxamide]
> 1000 nM | C=CC1(C)Cc2cc(C(=O)NCc3c(C)cc(C)[nH]c3=O)cc(-c3ccc(CN4CCOCC4)cc3)c2O1 (stereo not drawn) [Example 58, N-((4,6-Dimethyl-2-oxo-1,2-dihydropyridin-3-yl)methyl)-2-methyl-7-(4-(morpholinomethyl)phenyl)-2-vinyl-2,3-dihydrobenzofuran-5-carboxamide]
> 1000 nM | COc1ccc(-c2cc(C(=O)NCc3c(C)cc(C)[nH]c3=O)cc3c2OCC(C)CC3)cn1 (stereo not drawn) [Example 54, N-((4,6-dimethyl-2-oxo-1,2-dihydropyridin-3-yl)methyl)-9-(6-methoxypyridin-3-yl)-3-methyl-2,3,4,5-tetrahydrobenzo[b]oxepine-7-carboxamide]
> 1000 nM | Cc1cc(C)c(CNC(=O)c2cc(Br)c3c(c2)CCCC(C)O3)c(=O)[nH]1 (stereo not drawn) [Example 49, 9-Bromo-N-((4,6-dimethyl-2-oxo-1,2-dihydropyridin-3-yl)methyl)-2-methyl-2,3,4,5-tetrahydrobenzo[b]oxepine-7-carboxamide]
